The values below come from PubChem BioAssay AID1645865 (Buhrlage Lab, Dana-Farber Cancer Institute and Novartis …, 2021).

pIC50: −log10 of the molar value. The source made the active and inactive calls.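 How the source made its calls: active means maximal inhibition of the USP30 enzyme reaching 30% or more across the dose series; inactive means the rest.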

This assay deals with Ubiquitin carboxyl-terminal hydrolase 30 (Homo sapiens) (UniProt Q70CQ3). The experiment in a line: ubiquitin-specific protease 30 DUB inhibitors, concentration-effect, biochemical, validation of primary actives (AID 1645865). The following applies: purified USP30, Ub-rhodamine cleavage, fluorescence, 2 h.
Chain of Ubiquitin carboxyl-terminal hydrolase 30 (Homo sapiens) (Q70CQ3 whole entry, looked up): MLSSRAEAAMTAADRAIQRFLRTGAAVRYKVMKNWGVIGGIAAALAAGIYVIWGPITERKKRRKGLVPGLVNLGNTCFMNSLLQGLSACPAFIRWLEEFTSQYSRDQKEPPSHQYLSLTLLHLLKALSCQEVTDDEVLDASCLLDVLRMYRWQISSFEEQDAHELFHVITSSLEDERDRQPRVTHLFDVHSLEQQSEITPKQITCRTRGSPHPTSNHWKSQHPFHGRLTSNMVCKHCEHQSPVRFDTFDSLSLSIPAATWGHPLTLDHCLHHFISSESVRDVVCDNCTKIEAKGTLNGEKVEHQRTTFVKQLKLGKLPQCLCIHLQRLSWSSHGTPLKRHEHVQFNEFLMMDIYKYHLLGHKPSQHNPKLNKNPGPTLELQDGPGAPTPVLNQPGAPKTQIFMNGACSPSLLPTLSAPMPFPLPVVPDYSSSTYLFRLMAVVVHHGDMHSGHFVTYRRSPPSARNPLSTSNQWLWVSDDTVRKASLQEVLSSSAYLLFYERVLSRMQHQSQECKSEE

Regarding `O=C(Cn1ncc2c(N3CCCCCC3)ncnc21)NCc1ccccc1`, the IC50 was > 50 µM (inactive).

Turning to `COc1cccc(-c2nc(C(N)=O)c3[nH]c(=O)n(-c4cccc(Cl)c4)c3n2)c1OC`, the IC50 is > 50 µM (inactive).

On to `Nc1ccc(NC(=O)c2cc3c(s2)CCC3)cc1[N+](=O)[O-]`, for which the pIC50 is 4.78.

With `COc1ccc(NC(=O)c2ccccc2OCC(=O)Nc2ccccc2C(F)(F)F)c(C)c1`, the pIC50 was 4.54.

As to `Cc1c(C)n(-c2ccc(Br)cn2)c2ncnc(NCCCO)c12`, the pIC50 is 4.60.

In the case of `CS(=O)(=O)N1CCCN(c2nc3cc(Cl)ccc3n3cccc23)CC1`, the IC50 is > 50 µM (inactive).

For the compound `CCNc1oc(-c2ccc(S(=O)(=O)N3CCCCC3)cc2)nc1C#N`, the pIC50 was 4.66.

As for `COc1ccc(C(C)=O)cc1CC(=O)Nc1nc2ccccc2[nH]1`, the IC50 was > 50 µM (inactive).

As to `COc1ccc(C(=O)Nc2cc(F)c3nc(N4CCOCC4)ccc3c2)c(OC)c1`, the IC50 was > 50 µM (inactive).

In the case of `COc1cccc(NC(=O)c2nnn(-c3ccccc3)n2)c1`, the IC50 was > 50 µM (inactive).

On to `CN(CCCNC(=O)c1cccc2c1SCCC2=O)c1ccccc1`, for which the IC50 is > 50 µM (inactive).

As for `CCCn1c(=O)n(CC(=O)c2ccccc2F)c2c(C(N)=O)nc(-c3ccco3)nc21`, the IC50 is > 50 µM (inactive).

Regarding `Cc1cc(/C=C2/C(=N)N3C(c4ccccc4)=CSC3=NC2=O)c(C)n1-c1ccc2ccccc2c1`, the IC50 was > 50 µM (inactive).

Consider `COc1ccc(-n2ccc(=O)c(-c3nc(-c4ccccc4F)no3)n2)cc1OC`, for which the IC50 was > 50 µM (inactive).

With `O=C(Nc1ccncc1)c1ncoc1-c1cccc(Cl)c1`, the pIC50 was 4.45.

Take `COc1ccccc1-c1nc(Cn2nnc(C(=O)Nc3cc(C)cc(C)c3)c2N)c(C)o1`: the pIC50 was 4.40.

Take `Cc1cccc(NC(=O)c2nn(C)c3ccccc3c2=O)c1`: the pIC50 is 4.61.

With `COc1cc(COc2ccc3c(C)c(CC(=O)N4CC[C@@]5(O)CCCC[C@H]5C4)c(=O)oc3c2C)cc(OC)c1OC`, the pIC50 is 4.46.

As for `COc1cccc(NC(=O)C2CCN(C(=O)c3cc(-c4cccnc4)n[nH]3)CC2)c1`, the IC50 is > 50 µM (inactive).

As for `O=S1(=O)CCN(Cc2ccccc2)c2c(F)nc(N3CCCCC3)c(F)c21`, the IC50 is > 50 µM (inactive).

For the compound `Cc1ccccc1-c1nnc(-c2ccc(C(=O)NCc3ccccc3F)cc2)o1`, the pIC50 was 5.48.

With `O=C1Cc2ccccc2C(=O)N1c1ccc2c(c1)OCO2`, the IC50 was > 50 µM (inactive).

Regarding `Cc1ccc(CNC(=O)c2cccc(N3C(=O)N4CCc5c([nH]c6ccccc56)[C@@]4(C)C3=O)c2)cc1`, the pIC50 is 4.82.

As to `Cc1cc(C)c(O)c(-c2cc(C(=O)Nc3ccccc3Cl)[nH]n2)c1`, the pIC50 is 5.68.

Turning to `CCOC(=O)c1c(C)oc2nc(CSc3ccccc3)[nH]c(=O)c12`, the IC50 was > 50 µM (inactive).

On to `O=C(Nc1ccc2c(c1)OCO2)C1CCN(Cc2nc3ccccc3s2)CC1`, for which the IC50 was > 50 µM (inactive).

In the case of `CCc1cc2c(=O)[nH]c(Cc3ccc(OC)cc3)nc2s1`, the pIC50 is 4.40.

On to `Cc1[nH]nc(NC(=O)C2COc3ccccc3O2)c1-c1ccccc1` (configuration not stated), for which the pIC50 was 4.39.

As to `COc1ccc(OC)c(-c2cc(C(=O)Nc3c(C)nn(Cc4ccccc4)c3C)no2)c1`, the IC50 is > 50 µM (inactive).

With `Cc1cc(C(=O)Nc2ccc3nc(N4CCN(c5ncccn5)CC4)cc(C)c3c2)ccc1[N+](=O)[O-]`, the pIC50 is 5.65.

In the case of `Cc1ccc2c(c1)c(=O)c(C(=O)c1ccccc1)cn2CC(=O)Nc1ccccc1`, the negative-log IC50 (pIC50) was 5.06.

With `O=C(OCCCN1C(=O)c2cccc3c(N4CCCCC4)ccc(c23)C1=O)c1ccccn1`, the IC50 was > 50 µM (inactive).

Consider `CC1=CN2C(=N)/C(=C/c3cn(Cc4ccc(Cl)cc4)c4ccccc34)C(=O)N=C2S1`, for which the IC50 is > 50 µM (inactive).

Take `O=[N+]([O-])c1ccc(N2CCN(c3ncnc4c3[nH]c3ccc(F)cc34)CC2)cc1`: the pIC50 is 6.81.

Consider `COc1cc2c(c3oc4cccc(O)c4c(=O)c13)C1C=COC1O2` (configuration not stated), for which the IC50 was > 50 µM (inactive).

Take `CCNc1nc(SCC(C)=O)nc2sc3c(c12)CCC(C)C3` (configuration not stated): the IC50 was > 50 µM (inactive).

Regarding `COc1ccc(N(CC(=O)NC2CCCCC2)C(=O)c2ccc(-c3ccccc3)[nH]2)cc1OC`, the pIC50 is 5.55.

`COc1ccc(Cn2c(=O)[nH]c3cc(C(=O)NCCCN4CCN(c5cccc(Cl)c5)CC4)ccc3c2=O)cc1`: the pIC50 was 5.72.

Take `CC1(C(=O)NCc2ccccc2)Cn2c(cc3ccccc32)C(=O)N1Cc1ccccc1` (configuration not stated): the IC50 was > 50 µM (inactive).

Consider `COc1ccc(Cl)cc1-n1nnc(C(=O)N2CCc3ccccc3C2)c1C`, for which the IC50 is > 50 µM (inactive).

For the compound `CC(=O)Nc1ccc(S(=O)(=O)NCc2ccc(C(=O)NCCc3ccc(Cl)cc3)cc2)cc1`, the pIC50 was 5.77.

In the case of `Cc1cccc(NC(=O)CN2C(=O)CC(c3ccccc3)S(=O)(=O)c3ccccc32)c1C` (configuration not stated), the pIC50 is 4.66.

Turning to `CC1CCCN(S(=O)(=O)c2cc3cc(F)ccc3oc2=O)C1` (configuration not stated), the pIC50 was 4.67.

As to `COc1ccccc1NC(=O)CNC(=O)c1nn(-c2ccc(OC)c(OC)c2)c(=O)c2ccccc12`, the pIC50 was 4.45.

For `CCOc1ccc(NC(=O)Cn2c(=O)n(CC(=O)NCc3ccc(C)cc3)c(=O)c3sccc32)cc1`, the pIC50 was 6.33.

For `COc1ccc(NC(=O)c2cc(-c3cccnc3)n[nH]2)cc1Cl`, the negative-log IC50 (pIC50) was 5.93.

Consider `Cc1ccc(NC(=O)CNC(=O)c2cc3ccccc3o2)cc1`, for which the pIC50 was 4.75.

As to `CCCc1nc2c(sc3nc4c(cc32)COC(C)(C)C4)c(=O)n1CC(=O)Nc1ccccc1C`, the pIC50 was 4.40.

As for `O=C(Cn1cnc2c(cnn2-c2ccc(Cl)cc2)c1=O)NCc1ccccc1Cl`, the pIC50 was 5.63.

Regarding `O=C(NCc1ccc(F)cc1)C1CCN(c2cnc(N3CCCCC3)nc2)CC1`, the IC50 is > 50 µM (inactive).

Take `O=C(CCc1nnc2n(Cc3ccccc3)c(=O)c3ccccc3n12)N1CCN(c2ccccn2)CC1`: the pIC50 is 5.64.

As for `COc1ccc(-c2nc(Cn3nnc(C(=O)Nc4ccc(C)cc4C)c3N)c(C)o2)cc1`, the IC50 is > 5 µM (inactive).

For `CC1CCN(C(=O)c2cn(-c3cc(N4CCC(C)CC4)ncn3)cn2)CC1`, the IC50 was > 50 µM (inactive).

Turning to `Cc1ccc(-n2cc3c(N4CCCC(C(=O)NCC5CCCCC5)C4)ncnc3n2)cc1` (configuration not stated), the pIC50 is 4.39.

On to `COc1ccc(NC(=O)COc2ccc3ccc(=O)oc3c2)cc1`, for which the pIC50 was 4.46.

For `Cc1c2c(nc3ccccc13)-c1ccccc1CC2`, the IC50 was > 50 µM (inactive).

As for `Cc1cccc(-c2nc3n(CC(=O)Nc4ccc(Cl)cc4)c(C)cc(=O)n3n2)c1`, the pIC50 is 6.75.

Regarding `Fc1cccc(-n2cc(-c3noc(-c4ccc[nH]4)n3)nn2)c1`, the IC50 was > 50 µM (inactive).

With `O=C(Nc1ccc(Cl)cc1F)c1cc(-c2ccccn2)n[nH]1`, the pIC50 is 6.35.

Regarding `COC(=O)c1sc2ccccc2c1NC(=O)c1ccc(Br)s1`, the pIC50 is 4.67.

For the compound `COc1cnc(CSc2ncccn2)cc1OCC(=O)Nc1cc(C)ccc1C`, the pIC50 was 4.38.

As for `COc1c2n(c3ccccc13)[C@@]1(O)C(=O)N(C)C(=O)[C@@]1(O)c1c-2n(C)c2ccc(Cl)cc12`, the IC50 was > 50 µM (inactive).

On to `CCCCN(C)C(=O)c1cc2c(=O)n3cccc(C)c3nc2n1Cc1ccccc1`, for which the pIC50 was 4.43.

`Cc1ccc(NC(=O)c2nnn(-c3ccccc3Br)c2C)cc1C`: the IC50 was > 50 µM (inactive).

On to `CC(C)(C)c1ccc(C(=O)Nc2ccc(Cn3cncn3)cc2)cc1`, for which the IC50 is > 50 µM (inactive).

With `CC(C)c1ccc(NC(=O)c2cc3ncc(Br)cn3n2)cc1`, the IC50 is > 50 µM (inactive).

On to `COc1ccc(CCN2COc3c(cc(Cl)c4cccnc34)C2)cc1OC`, for which the pIC50 was 4.87.

Turning to `O=C(OCc1ccc(Br)cc1)c1ccc2ccccc2n1`, the IC50 is > 50 µM (inactive).

With `Cc1ccc(NC(=O)c2cnc(N3CCOCC3)nc2)cc1F`, the pIC50 is 4.56.

Consider `COc1cccc(C(=O)NCC(=O)Nc2nc3ccccc3[nH]2)c1`, for which the pIC50 was 4.46.

Consider `Cc1nc2nc(SCc3nc4ccccc4n3C)[nH]c2cc1Br`, for which the pIC50 was 5.32.

Consider `CN1C(=O)COc2ccc(NC(=O)c3cc(-c4ccccc4)on3)cc21`, for which the pIC50 was 4.85.

Turning to `Cc1cnc2nc3c(cc2c1)CN(CCc1ccc(Cl)cc1)CC3`, the IC50 is > 50 µM (inactive).

`CCOc1cc(C2C3=C(CC(C)(C)CC3=O)Nc3onc(C)c32)ccc1O` (configuration not stated): the pIC50 is 4.43.

As for `COc1cc(-c2ccno2)ccc1S(=O)(=O)Nc1ccccc1Cl`, the IC50 is > 50 µM (inactive).

In the case of `O=C(O)c1nccnc1C(=O)N1CCc2ccccc2C1`, the IC50 was > 50 µM (inactive).

In the case of `O=C(OCc1ccc(F)cc1)c1ccc2ccccc2n1`, the IC50 is > 50 µM (inactive).

Turning to `Cn1c2ccccc2c(=O)c2c(=O)n(Cc3ccccc3)c(-c3ccco3)nc21`, the pIC50 is 5.81.

Take `CCc1c(Cl)c(O)c(Cl)c(O)c1C(=O)O[C@H]1C(C)O[C@@H](OC/C2=C\C=C\CC(O)/C(C)=C/C(CC)C(O[C@@H]3OC(C)(C)[C@H](O)C(OC(=O)C(C)C)[C@@H]3O)/C(C)=C/C(C)=C/CC(C(C)O)OC2=O)[C@@H](OC)C1O` (some centres not stated): the IC50 is > 50 µM (inactive).

Consider `O=C(NC1CCN(Cc2ccccc2)CC1)c1[nH]nc2c1CCc1ccccc1-2`, for which the IC50 was > 50 µM (inactive).

In the case of `COc1ccc(N(CC(=O)Nc2cccc(F)c2)S(=O)(=O)c2ccc(OC)c(OC)c2)cc1`, the pIC50 was 4.75.

As for `N#Cc1c(Cl)cccc1Oc1ccc(S(=O)(=O)N2CCC(O)CC2)cc1`, the pIC50 was 4.71.

With `CCOc1ccccc1NC(=O)Cn1c(=O)n(CCCC(=O)NCc2ccc(C)cc2)c(=O)c2sccc21`, the negative logarithm of the IC50 (pIC50) was 5.60.

Turning to `O=C(CSc1nncc2ccccc12)Nc1ccc2c(c1)OCO2`, the IC50 was > 50 µM (inactive).

As for `COc1ccc(COc2ccc3c(C)c(CC(=O)N4CC[C@@]5(O)CCCC[C@H]5C4)c(=O)oc3c2)cc1`, the pIC50 is 5.65.

Turning to `CC(=O)Nc1cc2cc(-n3cccc3)ccc2oc1=O`, the IC50 is > 50 µM (inactive).

In the case of `CC(C)(C)C(=O)Nc1ccc(C(=O)Nc2cccc(-c3nnc(-c4ccccc4)o3)c2)cc1`, the pIC50 is 5.64.
